Experimental data published in US7030130B2, “Benzofuran derivatives and their use as antibacterial agents” (Arpida AG, priority 2000, dated 2006).
Values after ≈ are worked out from the molar mass of the structure shown.

How the values were obtained:
Assay in all cases: Antimicrobial susceptibility testing (NCCLS M7-A5), MIC
Assay type in all cases: cell-based
[1] = test system: Staphylococcus epidermidis ATCC 12228; settings: ATCC12228, in vitro, read-out: Minimum Inhibitory Concentration (MIC)
Description: (§1) Antimicrobial susceptibility testing was performed in accordance with the National Committee for Clinical Laboratory Standards (NCCLS) procedure [M7-A5, 2001]. […] Methods for Dilution Antimicrobial Susceptibility Tests for Bacteria That Grow Aerobically; Approved Standard—Fifth Edition American National Standard

[2] = test system: Escherichia coil ATCC 25922; settings: ATCC25922, in vitro, read-out: Minimum Inhibitory Concentration (MIC)
Description: as §1

[3] = test system: Streptococcus pneumoniae ATCC 49619; settings: ATCC49619, in vitro, read-out: Minimum Inhibitory Concentration (MIC)
Description: as §1

[4] = test system: Staphylococcus aureus ATCC 25923; settings: ATCC25923, in vitro, read-out: Minimum Inhibitory Concentration (MIC)
Description: as §1

[5] = test system: Bacillus subtilis ATCC 6051; settings: ATCC6051, in vitro, read-out: Minimum Inhibitory Concentration (MIC)
Description: as §1

[6] = test system: Enterococcus faecalis ATCC 29212; settings: ATCC29212, in vitro, read-out: Minimum Inhibitory Concentration (MIC)
Description: as §1

| MIC [1] [µg/mL] | MIC [2] [µg/mL] | MIC [3] [µg/mL] | MIC [4] [µg/mL] | MIC [5] [µg/mL] | MIC [6] [µg/mL] | SMILES |
| --- | --- | --- | --- | --- | --- | --- |
| 0.062 (≈ 0.159 µM) | 2 (≈ 5.12 µM) | 0.5 (≈ 1.28 µM) | 0.062 (≈ 0.159 µM) | 0.062 (≈ 0.159 µM) | 0.125 (≈ 0.32 µM) | COc1cc(Cc2cnc(N)nc2N)c2cc(Cc3ccccc3)oc2c1OC [Example 21, 5-(2-Benzyl-6,7-dimethoxy-benzofuran-4-ylmethyl)-pyrimidine-2,4-diamine] |
| 0.015 (≈ 0.0367 µM) | 2 (≈ 4.9 µM) | 0.5 (≈ 1.22 µM) | 0.25 (≈ 0.612 µM) | 0.25 (≈ 0.612 µM) | 1 (≈ 2.45 µM) | COc1cc(Cc2cnc(N)nc2N)c2cc(Cc3ccc(F)cc3)oc2c1OC [Example 72, 5-[2-(4-fluoro-benzyl)-6,7-dimethoxy-benzofuran-4-ylmethyl]-pyrimidine-2,4-diamine] |
| 0.062 (≈ 0.175 µM) | 4 (≈ 11.3 µM) | 0.125 (≈ 0.353 µM) | 0.062 (≈ 0.175 µM) | 0.062 (≈ 0.175 µM) | 0.5 (≈ 1.41 µM) | COc1cc(Cc2cnc(N)nc2N)c2cc(CC3CC3)oc2c1OC [Example 20, 5-(2-Cyclopropylmethyl-6,7-dimethoxy-benzofuran-4-ylmethyl)-pyrimidine-2,4-diamine] |
| 0.062 (≈ 0.214 µM) | 0.25 (≈ 0.861 µM) | 2 (≈ 6.89 µM) | 2 (≈ 6.89 µM) | 0.5 (≈ 1.72 µM) | 0.5 (≈ 1.72 µM) | COc1cc(Cc2cnc(N)nc2N)cc(OC)c1OC [Trimethoprim, 2,4-diamino-5-(3,4,5-trimethoxybenzyl)pyrimidine, reference compound] |
